Laboratory results as given in patent publication US8461170B2, “Chemical compounds” (Astrazeneca AB, priority 2010, dated 2013).
Like-named read-outs stand apart in the source and are kept apart here.

Experiments:
human ALK = biological target: T1, human ALK (Homo sapiens, UniProt Q9UM73); experiment: ALK kinase mobility shift assay (Caliper LC3000); type: biochemical; conditions: ATP 30 μM (Km) or 5 mM, not specified which
T1 construct: GST (N); purchased Invitrogen, Carlsbad, Calif; (or prepared by AstraZeneca); host or cells: insect cells
Protocol: ALK kinase activity was determined by measuring the kinase's ability to phosphorylate a tyrosine residue within a peptide substrate using a mobility shift assay on a Caliper LC3000 reader (Caliper Life Sciences, Hopkinton, Mass.), which measures fluorescence of the phosphorylated and unphosphorylated substrate and calculates a ratiometric value to determine percent turnover.
To measure ALK kinase activity, the ALK enzyme used was N-terminal GST-tagged, recombinant, human ALK, amino acids 1058-1620 (Genbank Accession number NP_004295) expressed in insect cells and activated in-vitro via autophosphorylation. This was either purchased from a commercially available source (Invitrogen, Carlsbad, Calif.) or prepared by AstraZeneca. The kinase was incubated with a FAM labeled SRCtide substrate (5FAM-GEEPLYWSFPAKKK-NH2, AnaSpec, Fremont, Calif.), 30 μM adenosine triphosphate (ATP, at Km concentration) or 5 mM ATP, 50 mM HEPES buffer (pH 7.3), 1 mM DTT, 0.01% Tween 20, 50 μg/ml BSA and 10 mM MgCl2 for 90 minutes at room temperature. After this time, the kinase reaction was stopped by adding quenching buffer containing final concentrations of 36 mM ethylenediaminetetraacetic acid (EDTA), 65 mM HEPES buffer (pH 7.3), 0.2% Coatin Reagent 3 (Caliper Life Sciences, Hopkinton, Mass.), and 0.003% Tween 20. The reaction was performed in 384 well microtitre plates and the reaction products were detected using the Caliper LC3000 Reader in the presence of separation buffer consisting of 100 mM HEPES (pH 7.3), 15.8 mM EDTA, 0.1% Coatin Reagent 3 (Caliper, Mass.), 0.015% Brij-35, 5% DMSO, and 5.6 mM MgCl2. The separation conditions set up on the Caliper LC3000 were −1.7 PSI, −400V upstream voltage, −2000V downstream voltage, 0.2 second sample sip, 45 second post sip, and 150 seconds final delay. The percentage of inhibition of ALK enzyme activity by compounds were measured based on Max signals (DMSO control) and Min signals (EDTA control) in the plates. Data was graphed and IC50s calculated by IDBS ActivityBase program.

ALK (h) = ALK (h) (Homo sapiens, UniProt Q9UM73); experiment: alternate ALK protocol (33P-ATP filter-binding radiometric assay); type: biochemical; conditions: 250 μM KKKSPGEYVNIEFG substrate, [γ-33P-ATP], 40 minutes at room temperature, read-out: ALK inhibitory activities (IC50s (μM))
Protocol: Examples 1, 9 and 10 were additionally tested using an alternate ALK protocol as follows: ALK (h) was incubated with 8 mM MOPS pH 7.0, 0.2 mM EDTA, 250 μM KKKSPGEYVNIEFG, 10 mM MgAcetate and [γ-33P-ATP] (specific activity approx. 500 cpm/pmol, concentration as required). The reaction was initiated by the addition of the MgATP mix. After incubation for 40 minutes at room temperature, the reaction was stopped by the addition of 3% phosphoric acid solution. 10 μL of the reaction was spotted onto a P30 filtermat and washed three times for 5 minutes in 75 mM phosphoric acid and once in methanol prior to drying and scintillation counting. When tested in the assay described above, Examples 1, 9 and 10 each had ALK inhibitory activities (IC50s (μM)) of 0.004, 0.019, and 0.006, respectively.

[1] = cumulative geometric means including test re-runs, some obtained since the priority filings, read-out: ALK Enzyme IC50 (μM)**
[2] = geometric means of multiple test runs, as presented in the priority filings, read-out: ALK Enzyme IC50 (μM)*

Chain of ALK (h) (Q9UM73 19-1620): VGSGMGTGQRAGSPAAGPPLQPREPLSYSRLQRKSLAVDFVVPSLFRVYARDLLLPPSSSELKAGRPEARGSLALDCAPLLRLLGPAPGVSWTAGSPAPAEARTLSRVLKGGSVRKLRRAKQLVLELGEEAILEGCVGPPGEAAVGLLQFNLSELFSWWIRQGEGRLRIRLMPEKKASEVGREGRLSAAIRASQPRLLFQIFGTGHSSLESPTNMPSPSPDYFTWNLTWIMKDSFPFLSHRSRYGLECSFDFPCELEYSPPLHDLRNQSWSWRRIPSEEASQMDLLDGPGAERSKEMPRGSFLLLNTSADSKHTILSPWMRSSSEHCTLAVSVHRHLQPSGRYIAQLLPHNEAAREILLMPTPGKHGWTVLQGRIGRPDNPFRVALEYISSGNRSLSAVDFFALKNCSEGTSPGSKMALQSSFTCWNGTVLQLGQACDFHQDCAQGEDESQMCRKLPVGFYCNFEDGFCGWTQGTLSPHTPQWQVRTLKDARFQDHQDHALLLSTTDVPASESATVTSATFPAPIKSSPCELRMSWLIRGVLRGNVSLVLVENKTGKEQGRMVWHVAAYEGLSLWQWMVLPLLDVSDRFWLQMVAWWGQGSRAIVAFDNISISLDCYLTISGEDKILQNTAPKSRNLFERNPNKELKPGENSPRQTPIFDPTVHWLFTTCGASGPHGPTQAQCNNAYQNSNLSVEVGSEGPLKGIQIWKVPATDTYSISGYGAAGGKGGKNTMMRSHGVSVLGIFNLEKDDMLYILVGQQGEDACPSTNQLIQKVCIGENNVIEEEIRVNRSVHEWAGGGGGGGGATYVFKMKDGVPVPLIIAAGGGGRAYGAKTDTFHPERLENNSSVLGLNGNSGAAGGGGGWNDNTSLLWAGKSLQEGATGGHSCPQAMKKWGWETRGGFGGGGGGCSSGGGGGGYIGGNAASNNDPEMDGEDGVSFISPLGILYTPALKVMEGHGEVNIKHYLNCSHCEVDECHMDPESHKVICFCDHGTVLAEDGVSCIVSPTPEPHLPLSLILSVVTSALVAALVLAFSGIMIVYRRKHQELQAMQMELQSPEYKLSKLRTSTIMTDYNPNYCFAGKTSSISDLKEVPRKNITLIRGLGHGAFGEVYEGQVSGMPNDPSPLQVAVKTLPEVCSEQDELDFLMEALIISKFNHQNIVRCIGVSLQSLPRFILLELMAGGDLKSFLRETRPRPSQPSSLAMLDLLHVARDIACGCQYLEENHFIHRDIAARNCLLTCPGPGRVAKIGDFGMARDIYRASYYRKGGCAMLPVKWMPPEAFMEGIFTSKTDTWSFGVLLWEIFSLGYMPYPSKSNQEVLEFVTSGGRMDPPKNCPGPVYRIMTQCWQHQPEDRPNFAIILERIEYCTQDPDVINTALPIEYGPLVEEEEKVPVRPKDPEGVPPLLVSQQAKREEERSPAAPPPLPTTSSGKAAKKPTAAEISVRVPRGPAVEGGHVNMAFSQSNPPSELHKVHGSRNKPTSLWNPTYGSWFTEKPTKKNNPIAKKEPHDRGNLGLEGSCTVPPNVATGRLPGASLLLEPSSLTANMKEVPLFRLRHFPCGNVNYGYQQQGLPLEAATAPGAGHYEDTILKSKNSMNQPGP
T1 sequence (Q9UM73 1058-1620): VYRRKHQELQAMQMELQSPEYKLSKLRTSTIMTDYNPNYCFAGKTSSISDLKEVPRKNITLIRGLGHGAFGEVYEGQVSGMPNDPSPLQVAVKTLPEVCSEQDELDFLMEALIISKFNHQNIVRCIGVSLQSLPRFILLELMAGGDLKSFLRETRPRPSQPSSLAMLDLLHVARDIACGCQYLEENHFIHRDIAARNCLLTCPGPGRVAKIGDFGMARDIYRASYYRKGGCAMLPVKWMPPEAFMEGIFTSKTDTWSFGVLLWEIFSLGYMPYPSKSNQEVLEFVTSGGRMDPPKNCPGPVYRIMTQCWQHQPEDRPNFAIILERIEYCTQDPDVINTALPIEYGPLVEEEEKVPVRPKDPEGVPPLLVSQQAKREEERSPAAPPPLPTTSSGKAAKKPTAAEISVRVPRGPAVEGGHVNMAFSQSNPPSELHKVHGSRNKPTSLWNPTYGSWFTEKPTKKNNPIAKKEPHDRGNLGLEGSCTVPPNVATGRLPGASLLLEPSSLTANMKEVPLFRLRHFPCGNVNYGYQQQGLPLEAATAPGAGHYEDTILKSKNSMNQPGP

SMILES | IC50 (human ALK; [1]) [µM] | IC50 (human ALK; [2]) [µM] | IC50 (ALK (h)) [µM]
COc1cc(N2CCC(N)CC2)ccc1Nc1ncc(Cl)c(-c2c[nH]c3ccccc23)n1 [Example 1, N-(4-(4-Aminopiperidin-1-yl)-2-methoxyphenyl)-5-chloro-4-(1H-indol-3-yl)pyrimidin-2-amine] | 0.021 | 0.015 | 0.004
COc1cc(N2CCC(N3CCN(C)CC3)CC2)ccc1Nc1ncc(Cl)c(-c2c[nH]c3ccccc23)n1 [Example 10, 5-Chloro-4-(1H-indol-3-yl)-N-(2-methoxy-4-(4-(4-methylpiperazin-1-yl)piperidin-1-yl)phenyl)pyrimidin-2-amine] |  | 0.02 | 0.006
COc1cc(N2CCC(N3CCN(C)CC3)CC2)c(Cl)cc1Nc1ncc(Cl)c(-c2c[nH]c3ccccc23)n1 [Example 40, 5-chloro-N-[5-chloro-2-methoxy-4-[4-(4-methylpiperazin-1-yl)-1-piperidyl]phenyl]-4-(1H-indol-3-yl)pyrimidin-2-amine] |  | 0.198 | 
COc1cc(N2CCC(N)CC2)ccc1Nc1ncc(F)c(-c2c[nH]c3ccccc23)n1 [Example 41, N-[4-(4-Amino-1-piperidyl)-2-methoxy-phenyl]-5-fluoro-4-(1H-indol-3-yl)pyrimidin-2-amine] |  | 0.068 | 

The remaining lines, values ahead:

IC50 (human ALK; [1]) [µM] | IC50 (human ALK; [2]) [µM] | IC50 (ALK (h)) [µM] | SMILES
0.068 | 0.05 | 0.019 | COc1cc(N2CCC(N3CCN(C)CC3)CC2)ccc1Nc1ncc(C)c(-c2c[nH]c3ccccc23)n1 [Example 9, 4-(1H-Indol-3-yl)-N-(2-methoxy-4-(4-(4-methylpiperazin-1-yl)piperidin-1-yl)phenyl)-5-methylpyrimidin-2-amine]
 | 0.244 |  | COc1cc(N2CCC(N3CCN(C)CC3)CC2)c(F)cc1Nc1ncc(F)c(-c2c[nH]c3ccccc23)n1 [Example 37, 5-Fluoro-N-[5-fluoro-2-methoxy-4-[4-(4-methylpiperazin-1-yl)-1-piperidyl]phenyl]-4-(1H-indol-3-yl)pyrimidin-2-amine]
 | 0.258 |  | COc1cc(N2CCC(N3CCN(C)CC3)CC2)c(F)cc1Nc1ncc(C)c(-c2c[nH]c3ccccc23)n1 [Example 38, N-[5-fluoro-2-methoxy-4-[4-(4-methylpiperazin-1-yl)-1-piperidyl]phenyl]-4-(1H-indol-3-yl)-5-methyl-pyrimidin-2-amine]
 | 0.225 |  | COc1cc(N2CCC(N3CCN(C)CC3)CC2)c(F)cc1Nc1ncc(Cl)c(-c2c[nH]c3ccccc23)n1 [Example 39, 5-chloro-N-[5-fluoro-2-methoxy-4-[4-(4-methylpiperazin-1-yl)-1-piperidyl]phenyl]-4-(1H-indol-3-yl)pyrimidin-2-amine]
